Reference: paper PMC11796312, “Multifunctional, Fluorene‐Based Modulator of Cholinergic and GABAergic Neurotransmission as a Novel Drug Candidate for Palliative Treatment of Alzheimer's Disease” (Angewandte Chemie (International Ed. in English), 2024)
Entries after “also recorded” stand apart in the source; their conditions may differ. Like-named read-outs stand apart in the source and are kept apart here.

How the values were obtained:
[1] = test system: mouse microglial cells (BV-2); assay: Cell viability, PrestoBlue (immunotoxicity); type: cell-based; details: Mus musculus, BV-2, 24 h
Procedure: (§1) The mouse microglial cells (BV-2) were cultured using standard procedures. The cells were a generous gift from professor Bozena Kaminska-Kaczmarek from Laboratory of Molecular Neurobiology, Neurobiology Center, Nencki Institute of Experimental Biology, Polish Academy of Sciences, Warsaw, Poland. The cells were cultured in Dulbecco’s Modified Eagle’s Medium - high glucose, (DMEM, Glutamx ThermoFisher ) supplemented with 10% fetal bovine serum heat inactivated (ThermoFisher), with added 100 IU/ml penicillin (Sigma Aldrich) and 100 µg/ml streptomycin (Sigma Aldrich). […]
(§2) an area of 175 cm2 (Nunc), and incubated at 37◦C, 5% CO2. For the test of compounds with the BV-2 cells line, microglia cells were seeded on 96-well culture plate (Falcon) at a density of 2x10^4 cells per well in fresh medium. The cells were grown for 24 hours in the incubator (37°C, 5% CO2) before performing experiments. […]
(§3) Preparation of stock solutions of tested compounds
(§4) Stock solutions were prepared in the concentration of 10 mM for test and reference compounds. Minimum 1 mg of each tested compound was weighed and dissolved in appropriate volume of dimethyl sulfoxide. Serial dilutions were prepared in DMSO and then the diluted compounds were transferred to PBS. Before assays eventual precipitation or opalescence was checked. All experiments were performed in duplicates, in three independent experiments. Cell viability was measured after 24 hours of incubation with tested cell line.
(§5) Cell viability was evaluated using the Presto Blue reagent (Thermo Fisher), according to the manufacturer procedures. Following 24 hours of incubation with the tested molecule, PrestoBlue reagent was added to a microplate well in an amount equal to one tenth of the remaining medium volume. The resulting mixture was incubated for 15 minutes at 37°C, and the fluorescence intensity (EX 530; EM 580 nm) was measured in the plate reader POLARstar Omega, (BMG Labtech). The results (viability values) are provided as a percentage of live cells with respect to DMSO (control sample).
(§6) Viability values were calculated as a percentage of live cells with respect to the control sample (DMSO). The negative control was medium without cells. IC 50 was determined by […]
(§7) nonlinear regression analysis using GraphPad Prism 9.0 software. All values are expressed as […]
(§8) Table S10. The viability of cells. neurotoxicity immuntoxicity
(§9) The results (viability values) are provided as a percentage of live cells with respect to DMSO (control sample)
(§10) Table S11. The viability of cells.

[2] = Cell viability, PrestoBlue (immunotoxicity); type: cell-based; details: mouse, 24 h, read-out: viability, immuntoxicity X [%]
Procedure: as §1, §2, §3, §4, §5, §6, §7, §8, §9, §10

mice [3] = assay: Four-plate test (FPT); type: in vivo; details: 0.1, 1 and 10 mg/kg i.p., vs control
Procedure: (§11) Animals and housing conditions
(§12) In all pharmacodynamic in vivo experiments, except for the Barnes maze (BM) task, adult male Albino Swiss (CD-1) mice weighing between 18 and 22 g and purchased from the Animal Breeding Farm of the Faculty of Pharmacy, Jagiellonian University Medical College were used. In BM task, C57BL/6J mice of the same weight (Animalab, Poland) were used.
(§13) Animals were housed in cages (10 mice per cage) at a constant temperature of 22 ± 2 °C, humidity of 55 ± 10%, and a light/dark (12:12) cycle (lights on at 7 AM). Before the experiments, the animals had unlimited access to food and water. […]
(§14) Briefly, mice were individually placed in a glass cylinder (25 cm high, 10 cm in diameter) containing 11 cm of water maintained at 23–25 °C and were left therein for 6 min. […] The total duration of immobility was measured during the final 4 min of a 6-min test session. […]
(§15) The four-plate apparatus (FPT; Bioseb, France) consists of a cage (25 × 18 × 16 cm) that is floored with four rectangular metal plates (11 × 8 cm). […] The number of punished crossings was counted […]
(§16) of the closed arms. […] The following parameters were measured in this test: time spent in open arms of the EPM device and the number of entries to open arms. […]

mice [4] = assay: Forced swim test (FST); type: in vivo; details: 1 mg/kg i.p., vs control
Procedure: as §11, §12, §13, §14, §15, §16

O[C@H](CNCC1CC1)[C@H](Cc1ccccc1)NC1c2ccccc2-c2ccccc21 [Compound 6]
IC50 ([1]; read-out: IMMUNOTOXICTY IC50): 18.9 µM
IC50 ([1]; read-out: IMMUNOTOXICTY pIC (converted)): 19.1 µM
viability at 24 h, 0.1 µM ([2]; BV-2, 0.1 µM): 102%
viability at 24 h, 1 µM ([2]; BV-2, 1 µM): 103%
viability at 24 h, 10 µM ([2]; BV-2, 10 µM): 94.8%
viability at 24 h, 50 µM ([2]; BV-2, 50 µM): 2%
viability at 24 h, 100 µM ([2]; BV-2, 100 µM, vs DMSO): 1.3%
number of punished crossings (mice [3]): increased the number of punished crossings; also recorded: statistically significant increase in the number of punished crossings
duration of immobility (mice [4]): reduced immobility; also recorded: mild yet statistically significant antidepressant activity
